Laboratory results published in patent US20190314312A1, “COMBINATION THERAPY TO INCREASE ENDOGENOUS NITRIC OXIDE (NO) SYNTHESIS” (Yeda Research and Development Co. Ltd., priority 2016, published 2019).
Entries after “also recorded” stand apart in the source; their conditions may differ.

Columns and labels:
enterocytes CKO mice = assay: DSS colitis (0.8% DSS) in enterocytes CKO mice, fisetin or NaNO2; type: in vivo, mouse; conditions: 0.8% DSS 5 days, fisetin 1 mg IP twice, FIGS. 4L-N
Protocol: Colitis was induced on C57BL/6J.OlaaHsd mice. Mice were treated with 1% DSS for 6 days, followed by administration of either fiselin (1 mg in 30 μl DMSO IP, twice, in 3 days interval) citrulline 1% (wt/vol) solution in drinking water, the combination of both treatments or only DMSO as a control (30 μl DMSO IP, twice, in 3 days interval). […] FIGS. 4L-N—Colitis was induced on enterocytes CKO mice and compared to controls. Mice were treated with 0.8% DSS for 5 days, followed by administration with either NO donors; NaNO2 (100 mg/kg) or fisetin (1 mg in 30 μl DMSO IP, twice, in 3 days interval). […] Note that colitis severity is reduced by activating As1 in enterocytes, by citrulline and fisetin supplementation.
Colitis was induced in Vav1^Cre:As1^f/f mice and CD11c^Cre:As1^f/f with 1.5% DSS and with 0.8% DSS in the Villin^Cre:As1^f/f (wt/vol), (Dextran Sodium Sulfate, MP Biomedicals; molecular weight 36,000-50,000 Da). […]
Colonoscopy was performed on days 7 and 11 of the experiment to monitor for severity of colitis. […] The endoscopic procedure was viewed on a color monitor and digitally recorded on tape. Colitis was scored according to the Murine endoscopic index of colitis severity (MEICS), considering differences in the thickness of the bowel wall, changes in blood vessel integrity, mucosal surface, stool consistency or the presence of fibrin, scored each between 0 and 3. […]

[1] = test system: lipopolysaccharide (LPS)-stimulated mouse primary peritoneal macrophages; conditions: in vitro; cited from earlier work
enterocytes = assay: FACS analysis of colon epithelial cells (enterocytes) after colitis induction; type: in vivo, mouse
Protocol: Colon segment was flushed with cold PBS, longitudinally cut open and rinsed to remove residual luminal contents. Tissue was cut into 3- to 5-mm pieces and incubated in HBSS medium containing EDTA 0.5 M and Hepes 10 mM at 37° C. for 20 minutes, shaken at 180 rpm, to separate epithelial fraction. Supernatant was centrifuged at 4° C. at 500 g for 10 minutes. Recovered tissue was digested in HBSS medium with 2% fetal bovine serum (FBS), 0.05% collagenase II and 0.05% DNase I (Sigma) for 40 minutes. at 37° C., shaken at 180 rpm. LP cells were filtered through 65 μm mesh and centrifuged at 4° C. at 500 g for 10 minutes. The present inventors prepared single cell suspensions from mouse colon by enzymatic digestion and analyzed by polychromatic flow cytometry. Samples were stained with conjugated antibodies or matching isotype controls according to manufacturer's instructions. Data were acquired on an LSRII (BD Biosciences) or FACSCalibur instrument (Becton-Dickinson) with CellQuest software, with a MacsQuant instrument (Miltenyi, Bergisch Gladbach, Germany), and analyzed using BD FACSDiva 6 or FlowJo software (version 7.6.5, or version vX.0.7 Tree Star Inc) or MacsQuant. Colon cells were stained for 30 min at 4° C. in flow cytometry buffer (PBS, 10% FCS and 0.02% azide). For antigens that require intracellular staining (As1, iNOS and S-nitrosocystein), cell surface staining was followed by cell fixation and permeabilization with the Cytofix/Cytoperm kit (BD Biosciences) according to the manufacturer's instructions. For staining, the present inventors used a lineage cocktail of antibodies anti-CD45-APC, Anti-CD64-PE, Anti-CD11c-PB, Anti-326-APC cy7, Anti CD31-PE cy7 (all from BioLegend). After staining for cell surface antigens, intracellular NO was detected by incubation of cells for 15 min at 37° C. with 10 μM DAF-FM diacetate followed by extensive washing, according to the manufacturer's instructions (Molecular Probes). Staining without addition of the DAF-FM probe was considered to be the baseline for gating the positive population. As1 was detected using anti-As1-ALEXA FLUOR® 488 (BD Biosciences), iNOS using anti-iNOS followed by anti-rat 488 (Jackson ImmunoResearch), and nitrosylation using anti-S-nitrosocystein (from abcam) followed by anti-mouse 488 (Jackson ImmunoResearch).

C57BL/6J.OlaaHsd mice = assay: DSS-induced colitis, treatment with arginine, citrulline, NaNO2, fisetin or citrulline plus fisetin; type: in vivo, mouse; conditions: day 12; fisetin, citrulline or both vs DMSO control; FIG. 4C

For `O=c1c(O)c(-c2ccc(O)c(O)c2)oc2cc(O)ccc12` [fisetin, 3,7, 3′, 4′-tetrahydroxyflavone], the “effect of treatment on colitis (survival, body weight gain, colitis score)” value (enterocytes CKO mice) is listed as “did not have an effect”, the “effect of treatment on colitis (survival, body weight gain, colitis score)” value (enterocytes CKO mice; listed as Fisetin) is listed as “not in the enterocytes CKO mice” and the pro-inflammatory cytokine [1] is listed as “significantly reduces pro-inflammatory cytokine”. The “NO levels in enterocytes (colon epithelial cells)” value (enterocytes; after colitis induction, treated vs control, FIGS. 3F-J, 4F-I) was “increased; also recorded: significant increase”, the “iNOS expression in enterocytes (colon cells)” value (enterocytes; fisetin vs control after colitis induction, FIGS. 4J-K) was “increased; also recorded: significant increase” and the “ASL levels in enterocytes” value (enterocytes; fisetin, FIGS. 4H-L) was “increase”. The endoscopic colitis score (C57BL/6J.OlaaHsd mice) was “significant improvement”.
